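The concentration for 50% growth inhibition is given as GI50. TGI is the concentration that stops growth completely.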
What was measured:
Assay in all cases: DTP human tumour cell line panel, 384-well format
M14 melanoma = system: M14 melanoma
ACHN renal = system: ACHN renal
OVCAR-5 ovarian = system: OVCAR-5 ovarian
NCI-H322M lung = system: NCI-H322M lung
KM12 colon = system: KM12 colon
MDA-MB-231 breast = system: MDA-MB-231 breast
BT-549 breast = system: BT-549 breast
MOLT-4 leukemia = system: MOLT-4 leukemia
OVCAR-3 ovarian = system: OVCAR-3 ovarian
HOP-92 NSCLC = system: HOP-92 NSCLC
RXF 393 renal = system: RXF 393 renal
HCT-15 colon = system: HCT-15 colon
T-47D breast = system: T-47D breast
U251 glioblastoma = system: U251 glioblastoma
NCI-H226 lung = system: NCI-H226 lung
A549 NSCLC = system: A549 NSCLC
MDA-MB-435 melanoma = system: MDA-MB-435 melanoma
CAKI-1 renal = system: CAKI-1 renal
IGROV1 ovarian = system: IGROV1 ovarian
TK-10 renal = system: TK-10 renal
786-0 renal = system: 786-0 renal
HS 578T breast = system: HS 578T breast
A498 renal = system: A498 renal
PC-3 prostate = system: PC-3 prostate
HL-60(TB) leukemia = system: HL-60(TB) leukemia
SNB-19 CNS = system: SNB-19 CNS
RPMI-8226 leukemia = system: RPMI-8226 leukemia
SN12C renal = system: SN12C renal
NCI-H23 lung = system: NCI-H23 lung
NCI-H522 lung = system: NCI-H522 lung
UO-31 renal = system: UO-31 renal
MDA-MB-468 breast = system: MDA-MB-468 breast
HCC-2998 colon = system: HCC-2998 colon
MCF7 breast = system: MCF7 breast
CCRF-CEM leukemia = system: CCRF-CEM leukemia
OVCAR-4 ovarian = system: OVCAR-4 ovarian
HOP-62 NSCLC = system: HOP-62 NSCLC
OVCAR-8 ovarian = system: OVCAR-8 ovarian
NCI/ADR-RES ovarian = system: NCI/ADR-RES ovarian
COLO 205 colon = system: COLO 205 colon
SF-295 CNS = system: SF-295 CNS
DU-145 prostate = system: DU-145 prostate
SK-MEL-28 melanoma = system: SK-MEL-28 melanoma
SW-620 colon = system: SW-620 colon
UACC-62 melanoma = system: UACC-62 melanoma
LOX IMVI melanoma = system: LOX IMVI melanoma
SF-268 CNS = system: SF-268 CNS
SK-MEL-5 melanoma = system: SK-MEL-5 melanoma
UACC-257 melanoma = system: UACC-257 melanoma
SNB-75 CNS = system: SNB-75 CNS
HT29 colon = system: HT29 colon
NCI-H460 NSCLC = system: NCI-H460 NSCLC
EKVX NSCLC = system: EKVX NSCLC
SR leukemia = system: SR leukemia
HCT-116 colon = system: HCT-116 colon
MALME-3M melanoma = system: MALME-3M melanoma
SK-OV-3 ovarian = system: SK-OV-3 ovarian
SF-539 CNS = system: SF-539 CNS

Q: For `Nc1cccc2c1C(=O)N(C1CCC(=O)NC1=O)C2=O` (stereo not given), which GI50 (M14 melanoma) is on record?
A: > 100 µM

Q: And the TGI (M14 melanoma)?
A: > 100 µM

Q: What about the GI50 (ACHN renal) of the same compound?
A: > 100 µM

Q: What about the TGI (ACHN renal) of the same compound?
A: > 100 µM

Q: What about the GI50 (OVCAR-5 ovarian) of the same compound?
A: > 100 µM

Q: What about the TGI (OVCAR-5 ovarian) of the same compound?
A: > 100 µM

Q: What about the GI50 (NCI-H322M lung) of the same compound?
A: > 100 µM

Q: And the TGI (NCI-H322M lung)?
A: > 100 µM

Q: And the GI50 (KM12 colon)?
A: > 100 µM

Q: And the TGI (KM12 colon)?
A: > 100 µM

Q: What about the GI50 (MDA-MB-231 breast) of the same compound?
A: > 100 µM

Q: And the TGI (MDA-MB-231 breast)?
A: > 100 µM

Q: And the GI50 (BT-549 breast)?
A: > 100 µM

Q: What about the TGI (BT-549 breast) of the same compound?
A: > 100 µM

Q: And the GI50 (MOLT-4 leukemia)?
A: > 100 µM

Q: And the TGI (MOLT-4 leukemia)?
A: > 100 µM

Q: What about the GI50 (OVCAR-3 ovarian) of the same compound?
A: > 100 µM

Q: And the TGI (OVCAR-3 ovarian)?
A: > 100 µM

Q: What about the GI50 (HOP-92 NSCLC) of the same compound?
A: > 100 µM

Q: And the TGI (HOP-92 NSCLC)?
A: > 100 µM

Q: What about the GI50 (RXF 393 renal) of the same compound?
A: > 100 µM

Q: And the TGI (RXF 393 renal)?
A: > 100 µM

Q: And the GI50 (HCT-15 colon)?
A: > 100 µM

Q: What about the TGI (HCT-15 colon) of the same compound?
A: > 100 µM

Q: And the GI50 (T-47D breast)?
A: > 100 µM

Q: What about the TGI (T-47D breast) of the same compound?
A: > 100 µM

Q: And the GI50 (U251 glioblastoma)?
A: > 100 µM

Q: And the TGI (U251 glioblastoma)?
A: > 100 µM

Q: And the GI50 (NCI-H226 lung)?
A: > 100 µM

Q: What about the TGI (NCI-H226 lung) of the same compound?
A: > 100 µM

Q: What about the GI50 (A549 NSCLC) of the same compound?
A: > 100 µM

Q: What about the TGI (A549 NSCLC) of the same compound?
A: > 100 µM

Q: And the GI50 (MDA-MB-435 melanoma)?
A: > 100 µM

Q: What about the TGI (MDA-MB-435 melanoma) of the same compound?
A: > 100 µM

Q: And the GI50 (CAKI-1 renal)?
A: > 100 µM

Q: What about the TGI (CAKI-1 renal) of the same compound?
A: > 100 µM

Q: And the GI50 (IGROV1 ovarian)?
A: > 100 µM

Q: And the TGI (IGROV1 ovarian)?
A: > 100 µM

Q: And the GI50 (TK-10 renal)?
A: > 100 µM

Q: What about the TGI (TK-10 renal) of the same compound?
A: > 100 µM

Q: What about the GI50 (786-0 renal) of the same compound?
A: > 100 µM

Q: What about the TGI (786-0 renal) of the same compound?
A: > 100 µM

Q: What about the GI50 (HS 578T breast) of the same compound?
A: > 100 µM

Q: And the TGI (HS 578T breast)?
A: > 100 µM

Q: And the GI50 (A498 renal)?
A: > 100 µM

Q: What about the TGI (A498 renal) of the same compound?
A: > 100 µM

Q: What about the GI50 (PC-3 prostate) of the same compound?
A: > 100 µM

Q: What about the TGI (PC-3 prostate) of the same compound?
A: > 100 µM

Q: And the GI50 (HL-60(TB) leukemia)?
A: > 100 µM

Q: What about the TGI (HL-60(TB) leukemia) of the same compound?
A: > 100 µM

Q: What about the GI50 (SNB-19 CNS) of the same compound?
A: > 100 µM

Q: What about the TGI (SNB-19 CNS) of the same compound?
A: > 100 µM

Q: What about the GI50 (RPMI-8226 leukemia) of the same compound?
A: 22.9 µM

Q: What about the TGI (RPMI-8226 leukemia) of the same compound?
A: > 100 µM

Q: What about the GI50 (SN12C renal) of the same compound?
A: > 100 µM

Q: And the TGI (SN12C renal)?
A: > 100 µM

Q: And the GI50 (NCI-H23 lung)?
A: > 100 µM

Q: And the TGI (NCI-H23 lung)?
A: > 100 µM

Q: What about the GI50 (NCI-H522 lung) of the same compound?
A: > 100 µM

Q: What about the TGI (NCI-H522 lung) of the same compound?
A: > 100 µM

Q: What about the GI50 (UO-31 renal) of the same compound?
A: > 100 µM

Q: What about the TGI (UO-31 renal) of the same compound?
A: > 100 µM

Q: What about the GI50 (MDA-MB-468 breast) of the same compound?
A: > 100 µM

Q: And the TGI (MDA-MB-468 breast)?
A: > 100 µM

Q: And the GI50 (HCC-2998 colon)?
A: > 100 µM

Q: What about the TGI (HCC-2998 colon) of the same compound?
A: > 100 µM

Q: And the GI50 (MCF7 breast)?
A: > 100 µM

Q: What about the TGI (MCF7 breast) of the same compound?
A: > 100 µM

Q: And the GI50 (CCRF-CEM leukemia)?
A: > 100 µM

Q: And the TGI (CCRF-CEM leukemia)?
A: > 100 µM

Q: What about the GI50 (OVCAR-4 ovarian) of the same compound?
A: > 100 µM

Q: What about the TGI (OVCAR-4 ovarian) of the same compound?
A: > 100 µM

Q: What about the GI50 (HOP-62 NSCLC) of the same compound?
A: > 100 µM

Q: And the TGI (HOP-62 NSCLC)?
A: > 100 µM

Q: What about the GI50 (OVCAR-8 ovarian) of the same compound?
A: > 100 µM

Q: And the TGI (OVCAR-8 ovarian)?
A: > 100 µM

Q: And the GI50 (NCI/ADR-RES ovarian)?
A: > 100 µM

Q: What about the TGI (NCI/ADR-RES ovarian) of the same compound?
A: > 100 µM

Q: What about the GI50 (COLO 205 colon) of the same compound?
A: > 100 µM

Q: What about the TGI (COLO 205 colon) of the same compound?
A: > 100 µM

Q: What about the GI50 (SF-295 CNS) of the same compound?
A: > 100 µM

Q: What about the TGI (SF-295 CNS) of the same compound?
A: > 100 µM

Q: What about the GI50 (DU-145 prostate) of the same compound?
A: > 100 µM

Q: What about the TGI (DU-145 prostate) of the same compound?
A: > 100 µM

Q: What about the GI50 (SK-MEL-28 melanoma) of the same compound?
A: > 100 µM

Q: And the TGI (SK-MEL-28 melanoma)?
A: > 100 µM

Q: And the GI50 (SW-620 colon)?
A: > 100 µM

Q: And the TGI (SW-620 colon)?
A: > 100 µM

Q: What about the GI50 (UACC-62 melanoma) of the same compound?
A: > 100 µM

Q: What about the TGI (UACC-62 melanoma) of the same compound?
A: > 100 µM

Q: What about the TGI (LOX IMVI melanoma) of the same compound?
A: > 100 µM

Q: And the GI50 (SF-268 CNS)?
A: > 100 µM

Q: And the TGI (SF-268 CNS)?
A: > 100 µM

Q: And the GI50 (SK-MEL-5 melanoma)?
A: > 100 µM

Q: And the TGI (SK-MEL-5 melanoma)?
A: > 100 µM

Q: And the GI50 (UACC-257 melanoma)?
A: > 100 µM

Q: What about the TGI (UACC-257 melanoma) of the same compound?
A: > 100 µM

Q: And the GI50 (SNB-75 CNS)?
A: > 100 µM

Q: And the TGI (SNB-75 CNS)?
A: > 100 µM

Q: And the GI50 (HT29 colon)?
A: > 100 µM

Q: And the TGI (HT29 colon)?
A: > 100 µM

Q: And the GI50 (NCI-H460 NSCLC)?
A: > 100 µM

Q: What about the TGI (NCI-H460 NSCLC) of the same compound?
A: > 100 µM

Q: What about the GI50 (EKVX NSCLC) of the same compound?
A: > 100 µM

Q: What about the TGI (EKVX NSCLC) of the same compound?
A: > 100 µM

Q: What about the GI50 (SR leukemia) of the same compound?
A: > 100 µM

Q: And the TGI (SR leukemia)?
A: > 100 µM

Q: And the GI50 (HCT-116 colon)?
A: > 100 µM

Q: What about the TGI (HCT-116 colon) of the same compound?
A: > 100 µM

Q: What about the GI50 (MALME-3M melanoma) of the same compound?
A: > 100 µM

Q: And the TGI (MALME-3M melanoma)?
A: > 100 µM

Q: And the GI50 (SK-OV-3 ovarian)?
A: > 100 µM

Q: What about the TGI (SK-OV-3 ovarian) of the same compound?
A: > 100 µM

Q: What about the GI50 (SF-539 CNS) of the same compound?
A: > 100 µM

Q: And the TGI (SF-539 CNS)?
A: > 100 µM

— PubChem BioAssay (NCI)
